According to patent US20240366813A1, “PEPTIDE-UREA DERIVATIVE, PHARMACEUTICAL COMPOSITION CONTAINING SAME AND APPLICATION THEREOF” (Bivision Pharmaceuticals, Inc., priority 0001, published 2024):
Several values for one entry are separate records, joined by “and”; a condition that tells them apart may be missing. Identical values can stand only once.

Tests used:
[1] = In vivo metabolism test of 177Lu-labeled complex in SD rats (plasma radioactive counts); conditions: for plasma radioactive counts: individual rat, 100 μL plasma; for plasma radioactive counts, MEAN: mean of rats
Description: Eighteen SD rats (Hangzhou Ziyuan Experimental Animal Technology Co., Ltd.), male, weighing 180-200 g, were randomly divided into 6 groups, 3 rats in each group. […] of the labeled precursor compound was injected into the tail vein of each mouse. 250 μL of orbital blood was collected into anticoagulant tubes at 5 min, 0.5 h, 1 h, 2 h, 4 h, 8 h and 24 h after administration. Blood was centrifuged at 3000 rpm for 10 min, and 100 μL of plasma was taken into scintillation vials. 2 mL of scintillation fluid was added to each scintillation vial and shaken well. A liquid scintillation counter was used to detect radioactive counts in each vial.

[2] = test system: PSMA-positive cells LNCap; assay: Uptake of labeled compounds by PSMA-positive cells LNCap; format: cell-based; conditions: 37° C., 0.5 h
Description: LNCap cells (Shangcheng Beina Chuanglian Biotechnology Co., Ltd., Industrial Park, Chengguan Town, Shangcheng County, Xinyang City, Henan Province) were revived and passaged for expansion. After the cells were expanded to a sufficient amount, cells were seeded in a 24-well plate at a density of 1×10^4 cells/well. Uptake tests were performed when cells grew to 80%-90% confluence.
The above labeled compounds ^177Lu-E1, ^177Lu-E2, ^177Lu-E3, ^177Lu-E5, ^177Lu-E9, ^177Lu-E14 and ^177Lu-PSMA-617 were diluted with serum-free medium into 10000, 1000, 100, 10, 1, 0.1 and 0 nM. 1 mL of the diluted solution was added to a 24-well plate, and incubated at 37° C. for 0.5 h. The supernatant was discarded and the cells were washed 3 times with PBS. 250 μL of 1M NaOH solution was added to each well. The cells were pipetted until they were completely dissolved, and transferred to a scintillation vial. 250 μL of NaOH solution was added to each well again to wash the bottom of the well and transferred to a scintillation vial. 2 mL of scintillation fluid was added to each scintillation vial and shaken well. A liquid scintillation counter was used to detect radioactive counts in each vial.

[3] = test system: LNCaP PSMA-positive tumors; assay: SPECT imaging in mice carrying LNCaP PSMA-positive tumors; format: in vivo; conditions: 100 μCi tail vein
Description: 100 μCi of ^177Lu-labeled ^177Lu-E3 and ^177Lu-PSMA-617 were injected into mice carrying LNCaP PSMA-positive tumors (Jiangsu Huajing Molecular Imaging and Drug Research Institute Co., Ltd.) through the tail vein respectively. Mice were anesthetized with 2% isoflurane/98% oxygen for SPECT image contrast study.

22rv1 xenograft tumor = assay: Pharmacodynamic study in 22rv1 mouse xenograft tumor model (effect example 11); format: in vivo, mice; conditions: over the two dose groups
[4] = 5 min after tail vein injection
[5] = 0.5 h after tail vein injection

SMILES: O=C([O-])CN1CCN(CC(=O)[O-])CCN(CC(=O)Nc2nc3cc(C(=O)NC(Cc4ccc5ccccc5c4)C(=O)NCCCCC(NC(=O)NC(CCC(=O)O)C(=O)O)C(=O)O)ccc3s2)CCN(CC(=O)[O-])CC1.[177Lu+3] (stereo not drawn) [^177Lu-E1]
- plasma radioactive counts [1, 4]: 28305 cpm and 17143 cpm
- plasma radioactive counts [1, 5]: 9829 cpm and 8252 cpm
- plasma radioactive counts ([1]; 1 h after tail vein injection): 3505 cpm and 3389 cpm
- plasma radioactive counts ([1]; 2 h after tail vein injection): 615 cpm and 1288 cpm
- plasma radioactive counts ([1]; 4 h after tail vein injection): 163 cpm and 315 cpm
- plasma radioactive counts ([1]; 8 h after tail vein injection): 174 cpm and 179 cpm
- plasma radioactive counts ([1]; 24 h after tail vein injection): 151 cpm and 169 cpm
- plasma radioactive counts, MEAN [1, 4]: 22724 cpm
- plasma radioactive counts, MEAN [1, 5]: 9041 cpm
- plasma radioactive counts, MEAN ([1]; 1 h after tail vein injection): 3447 cpm
- plasma radioactive counts, MEAN ([1]; 2 h after tail vein injection): 952 cpm
- plasma radioactive counts, MEAN ([1]; 4 h after tail vein injection): 239 cpm
- plasma radioactive counts, MEAN ([1]; 8 h after tail vein injection): 177 cpm
- plasma radioactive counts, MEAN ([1]; 24 h after tail vein injection): 160 cpm
- uptake by LNCap cells ([2]; 0.1 nM): 39 cpm
- uptake by LNCap cells ([2]; 1 nM): 169 cpm
- uptake by LNCap cells ([2]; 10 nM): 77 cpm
- uptake by LNCap cells ([2]; 100 nM): 121 cpm
- uptake by LNCap cells ([2]; 1000 nM): 331 cpm
- uptake by LNCap cells ([2]; 10000 nM): 1595 cpm

SMILES: O=C([O-])CN1CCN(CC(=O)[O-])CCN(CC(=O)N2CC3(CCC(C(=O)NC(Cc4ccc5ccccc5c4)C(=O)NCCCCC(NC(=O)NC(CCC(=O)O)C(=O)O)C(=O)O)CC3)C2)CCN(CC(=O)[O-])CC1.[177Lu+3] (stereo not drawn) [^177Lu-E2]
- plasma radioactive counts [1, 4]: 37703 cpm and 41406 cpm
- plasma radioactive counts [1, 5]: 18427 cpm and 15030 cpm
- plasma radioactive counts ([1]; 1 h after tail vein injection): 7473 cpm and 5428 cpm
- plasma radioactive counts ([1]; 2 h after tail vein injection): 1863 cpm and 1189 cpm
- plasma radioactive counts ([1]; 4 h after tail vein injection): 296 cpm and 219 cpm
- plasma radioactive counts ([1]; 8 h after tail vein injection): 178 cpm and 190 cpm
- plasma radioactive counts ([1]; 24 h after tail vein injection): 167 cpm and 170 cpm
- plasma radioactive counts, MEAN [1, 4]: 39555 cpm
- plasma radioactive counts, MEAN [1, 5]: 16729 cpm
- plasma radioactive counts, MEAN ([1]; 1 h after tail vein injection): 6451 cpm
- plasma radioactive counts, MEAN ([1]; 2 h after tail vein injection): 1526 cpm
- plasma radioactive counts, MEAN ([1]; 4 h after tail vein injection): 258 cpm
- plasma radioactive counts, MEAN ([1]; 8 h after tail vein injection): 184 cpm
- plasma radioactive counts, MEAN ([1]; 24 h after tail vein injection): 169 cpm
- uptake by LNCap cells ([2]; 0.1 nM): 29 cpm
- uptake by LNCap cells ([2]; 1 nM): 91 cpm
- uptake by LNCap cells ([2]; 10 nM): 344 cpm
- uptake by LNCap cells ([2]; 100 nM): 596 cpm
- uptake by LNCap cells ([2]; 1000 nM): 775 cpm
- uptake by LNCap cells ([2]; 10000 nM): 1328 cpm

SMILES: O=C([O-])CN1CCN(CC(=O)[O-])CCN(CC(=O)N2CCC3(CCC(C(=O)NC(Cc4ccc5ccccc5c4)C(=O)NCCCCC(NC(=O)NC(CCC(=O)O)C(=O)O)C(=O)O)CC3)CC2)CCN(CC(=O)[O-])CC1.[177Lu+3] (stereo not drawn) [^177Lu-E9]
- plasma radioactive counts [1, 4]: 30764 cpm and 38134 cpm and 30001 cpm
- plasma radioactive counts [1, 5]: 10391 cpm and 12249 cpm and 8575 cpm
- plasma radioactive counts ([1]; 1 h after tail vein injection): 4483 cpm and 4139 cpm and 2519 cpm
- plasma radioactive counts ([1]; 2 h after tail vein injection): 892 cpm and 652 cpm and 346 cpm
- plasma radioactive counts ([1]; 4 h after tail vein injection): 210 cpm and 196 cpm and 197 cpm
- plasma radioactive counts ([1]; 8 h after tail vein injection): 171 cpm and 184 cpm and 161 cpm
- plasma radioactive counts ([1]; 24 h after tail vein injection): 164 cpm and 162 cpm and 183 cpm
- plasma radioactive counts, MEAN [1, 4]: 32966 cpm
- plasma radioactive counts, MEAN [1, 5]: 10405 cpm
- plasma radioactive counts, MEAN ([1]; 1 h after tail vein injection): 3714 cpm
- plasma radioactive counts, MEAN ([1]; 2 h after tail vein injection): 630 cpm
- plasma radioactive counts, MEAN ([1]; 4 h after tail vein injection): 201 cpm
- plasma radioactive counts, MEAN ([1]; 8 h after tail vein injection): 172 cpm
- plasma radioactive counts, MEAN ([1]; 24 h after tail vein injection): 170 cpm
- uptake by LNCap cells ([2]; 0.1 nM): 56 cpm
- uptake by LNCap cells ([2]; 1 nM): 55 cpm
- uptake by LNCap cells ([2]; 10 nM): 84 cpm
- uptake by LNCap cells ([2]; 100 nM): 140 cpm
- uptake by LNCap cells ([2]; 1000 nM): 405 cpm
- uptake by LNCap cells ([2]; 10000 nM): 1194 cpm

SMILES: O=C([O-])CN1CCN(CC(=O)[O-])CCN(CC(=O)NC23CC(C(=O)NC(Cc4ccc5ccccc5c4)C(=O)NCCCCC(NC(=O)NC(CCC(=O)O)C(=O)O)C(=O)O)(C2)C3)CCN(CC(=O)[O-])CC1.[177Lu+3] (stereo not drawn) [^177Lu-E14]
- plasma radioactive counts [1, 4]: 42150 cpm and 41058 cpm and 45756 cpm
- plasma radioactive counts [1, 5]: 18047 cpm and 18268 cpm and 18614 cpm
- plasma radioactive counts ([1]; 1 h after tail vein injection): 7200 cpm and 6304 cpm and 6154 cpm
- plasma radioactive counts ([1]; 2 h after tail vein injection): 1415 cpm and 1686 cpm and 1863 cpm
- plasma radioactive counts ([1]; 4 h after tail vein injection): 203 cpm and 198 cpm and 259 cpm
- plasma radioactive counts ([1]; 8 h after tail vein injection): 201 cpm and 206 cpm and 203 cpm
- plasma radioactive counts ([1]; 24 h after tail vein injection): 196 cpm and 175 cpm and 159 cpm
- plasma radioactive counts, MEAN [1, 4]: 42988 cpm
- plasma radioactive counts, MEAN [1, 5]: 18310 cpm
- plasma radioactive counts, MEAN ([1]; 1 h after tail vein injection): 6553 cpm
- plasma radioactive counts, MEAN ([1]; 2 h after tail vein injection): 1655 cpm
- plasma radioactive counts, MEAN ([1]; 4 h after tail vein injection): 220 cpm
- plasma radioactive counts, MEAN ([1]; 8 h after tail vein injection): 203 cpm
- plasma radioactive counts, MEAN ([1]; 24 h after tail vein injection): 177 cpm
- uptake by LNCap cells ([2]; 0.1 nM): 28 cpm
- uptake by LNCap cells ([2]; 1 nM): 82 cpm
- uptake by LNCap cells ([2]; 10 nM): 220 cpm
- uptake by LNCap cells ([2]; 100 nM): 345 cpm
- uptake by LNCap cells ([2]; 1000 nM): 479 cpm
- uptake by LNCap cells ([2]; 10000 nM): 362 cpm

SMILES: O=C([O-])CN1CCN(CC(=O)[O-])CCN(CC(=O)NCC2CCC(C(=O)N[C@@H](Cc3ccc4ccccc4c3)C(=O)NCCCC[C@H](NC(=O)N[C@@H](CCC(=O)O)C(=O)O)C(=O)O)CC2)CCN(CC(=O)[O-])CC1.[177Lu+3] (stereo partly drawn) [^177Lu-PSMA-617, reference compound]
- Heart, Averaged ([3]; 1 h): 1.59 % ID/cc
- Kidney, Averaged ([3]; 1 h): 58.17 % ID/cc
- Liver, Averaged ([3]; 1 h): 1.61 % ID/cc
- Lung, Averaged ([3]; 1 h): 3.30 % ID/cc
- Tumor, Averaged ([3]; 1 h): 19.42 % ID/cc
- Heart, Averaged ([3]; 4 h): 1.47 % ID/cc
- Kidney, Averaged ([3]; 4 h): 8.37 % ID/cc
- Liver, Averaged ([3]; 4 h): 1.27 % ID/cc
- Lung, Averaged ([3]; 4 h): 1.54 % ID/cc
- Tumor, Averaged ([3]; 4 h): 10.68 % ID/cc
- Heart, Averaged ([3]; 8 h): 0.53 % ID/cc
- Kidney, Averaged ([3]; 8 h): 4.35 % ID/cc
- Liver, Averaged ([3]; 8 h): 1.04 % ID/cc
- Lung, Averaged ([3]; 8 h): 0.86 % ID/cc
- Tumor, Averaged ([3]; 8 h): 9.4 % ID/cc
- Heart, Averaged ([3]; 1 d): 1.45 % ID/cc
- Kidney, Averaged ([3]; 1 d): 1.16 % ID/cc
- Liver, Averaged ([3]; 1 d): 1.43 % ID/cc
- Lung, Averaged ([3]; 1 d): 0.85 % ID/cc
- Tumor, Averaged ([3]; 1 d): 2.19 % ID/cc
- Heart, Averaged ([3]; 3 d): 0.46 % ID/cc
- Kidney, Averaged ([3]; 3 d): 1.55 % ID/cc
- Liver, Averaged ([3]; 3 d): 0.96 % ID/cc
- Lung, Averaged ([3]; 3 d): 3.74 % ID/cc
- Tumor, Averaged ([3]; 3 d): 4.76 % ID/cc
- tumor growth inhibition rate (22rv1 xenograft tumor): 15-21%
- plasma radioactive counts [1, 4]: 24449 cpm and 23276 cpm and 22010 cpm
- plasma radioactive counts [1, 5]: 9783 cpm and 13738 cpm and 14589 cpm
- plasma radioactive counts ([1]; 1 h after tail vein injection): 3865 cpm and 6988 cpm and 7736 cpm
- plasma radioactive counts ([1]; 2 h after tail vein injection): 679 cpm and 1346 cpm and 1544 cpm
- plasma radioactive counts ([1]; 4 h after tail vein injection): 207 cpm and 219 cpm and 225 cpm
- plasma radioactive counts ([1]; 8 h after tail vein injection): 188 cpm and 187 cpm and 170 cpm
- plasma radioactive counts ([1]; 24 h after tail vein injection): 173 cpm and 176 cpm and 178 cpm
- plasma radioactive counts, MEAN [1, 4]: 23245 cpm
- plasma radioactive counts, MEAN [1, 5]: 12703 cpm
- plasma radioactive counts, MEAN ([1]; 1 h after tail vein injection): 6196 cpm
- plasma radioactive counts, MEAN ([1]; 2 h after tail vein injection): 1190 cpm
- plasma radioactive counts, MEAN ([1]; 4 h after tail vein injection): 217 cpm
- plasma radioactive counts, MEAN ([1]; 8 h after tail vein injection): 182 cpm
- plasma radioactive counts, MEAN ([1]; 24 h after tail vein injection): 176 cpm
- uptake by LNCap cells ([2]; 0.1 nM): 49 cpm
- uptake by LNCap cells ([2]; 1 nM): 67 cpm
- uptake by LNCap cells ([2]; 10 nM): 225 cpm
- uptake by LNCap cells ([2]; 100 nM): 389 cpm
- uptake by LNCap cells ([2]; 1000 nM): 599 cpm
- uptake by LNCap cells ([2]; 10000 nM): 1625 cpm
